Laboratory results as given in EP4813463A2, “TYK2 INHIBITORS AND COMPOSITIONS AND METHODS THEREOF” (Lynk Pharmaceuticals Co. Ltd., priority 2023, dated 2024).
Values after ≈ are worked out from the molar mass of the structure shown. Like-named read-outs stand apart in the source and are kept apart here.

Experiments:
Kinetic solubility = assay type: physicochemical; settings: kinetic from dmso stock, 100 mM pH 7.4 phosphate buffer, 1% DMSO, room temperature, read-out: Kinetics Solubility_PBS7.4
How it was run: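 Compounds diluted from 10 mM/5 mM DMSO stocks into 100 mM phosphate buffer pH 7.4 (1% DMSO final), shaken 2 h at room temperature, then centrifuged. Dissolved compound in supernatant quantified by LC-MS/MS against a standard curve.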

TYK2-JH2 domain = molecular target: T1, TYK2-JH2 domain (Homo sapiens, UniProt P29597); assay: Binding activity test for JH2 domain of TYK2 (Tb-antibody/tracer FRET)
T1 construct: JAK1-JH2 domain or TYK2-JH2 domain enzyme in assay buffer
How it was run: (§1)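 Competitive TR-FRET binding: compounds dispensed as an 11-point 3-fold dilution series, then Tb-labelled antibody and tracer added to the JH2 protein system. Incubated at 25°C, then overnight at 4°C; FRET signal read on Envision and IC50 (nM) derived.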

JAK1-JH2 domain = molecular target: T2, JAK1-JH2 domain (Homo sapiens, UniProt P23458); assay: Binding activity test for JH2 domain of JAK1 (Tb-antibody/tracer FRET)
T2 construct: JAK1-JH2 domain or TYK2-JH2 domain enzyme in assay buffer
How it was run: as §1

IFNa pSTAT1 = assay: Phosphorylation of STAT1 inhibition in HMC3 cells by Jess; assay type: cell-based; settings: Homo sapiens; HMC3 microglia cells, 50ng/mL hINFα 1 hour, Jess western; read-out: Jess_HMC3 IC50 (IFNa pSTAT1)
Procedure: Seeding HMC3 cells into 12-well plate and incubate overnight. Pre-stimulation with recombinant human IFNα (Sino biological, H08Y), treat cells with compound with different concentration for 1hr. After compound treatment, stimulate HMC3 cells with 50ng/mL hINFα for another 1 hour (for CCF-STTG1 cells IFNα induction time is 30 mins). And then wash cells with DPBS once gently and lyse cells with pre-cooled RIPA buffer (Sigma, R0278-500ML) for 30min on ice to harvest cells. Centrifuge cell lysate for 20 mins at 12000rpm with freezer centrifuge (Thermo Scientific, Heraeus Fresco 21) to extract protein. Prepare samples with Jess Simple Wes kit (SM-WO04) and then run western blot on Jess simple western system (Protein simple, JS-4631). Collect data and analyzed with GraphPad Prism.

[1] = test system: Ba/F3-FL-TYK2-P760L cells; assay: Anti-proliferative assay in engineered Ba/F3 cells (Cell-Titer Glo, 72 h); assay type: cell-based; settings: Mus musculus, concentration that causes 50% growth inhibition, read-out: Baf3-FL-T2P760L
How it was run: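 Ba/F3 cells carrying Tel-dimerization/JAK kinase fusion, IL-3-independent, in RPMI-1640 + 10% FBS; 9-point 3-fold dilutions from 20 µM (0.1% DMSO) added after 24 h, 72 h at 37 °C. Viability by Cell-Titer Glo ATP luminescence; % inhibition versus DMSO cells, blank-corrected, giving IC50.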

JAK2 = molecular target: T3, JAK2 (Homo sapiens, UniProt O60674); assay: JAK2 kinase activity, microfluidic assay (Caliper EZ Reader II, FAM labeled peptide substrate); assay type: biochemical; settings: JAK2 1.5 nM, 1 mM ATP
T3 construct: purchased Carna Biosciences
Procedure: Testing for JAK1, JAK2 and TYK2 Kinase Activities
JAK activity was determined in the reaction buffer 50 mM HEPES, 0.01% Brij35, 10 mM MgCl2, 2 mM DTT by a microfluidic assay. The phosphorylation of a FAM labeled peptide substrate was monitored in the Caliper EZ Reader II (Perkin Elmer). The assay condition for each batch of enzyme (Carna Biosciences) was optimized to obtain 10% conversion rate of peptide substrate.
The test compounds were dissolved in DMSO to a stock concentration of 10 mM. Three-fold serially diluted compounds with top concentration of 5 µM were pre-incubated with JAK1, JAK2 or TYK2 for 10 min at ambient temperature. The final DMSO concentration of assay mixture was 1%. […] The reaction was stopped by adding 50 mM EDTA.
And the well without compound but with equivalent DMSO was defined as no inhibition. The percent inhibition was calculated by the following formula: % Inhibition = (Conversion%_max−Conversion%_sample)/(Conversion%_max−Conversion%_min) × 100 [formula] wherein • Conversion%_ max = the conversion rate in the positive well without addition of compound • Conversion%_ sample = the conversion rate of test compounds • Conversion%_ min = the conversion rate in the well without addition of enzyme
The dose-response (percent inhibition) curve was plotted and IC50 values were determined by GraphPad software. The IC50 values of tested compounds were list in Table 3. Table 3. JAK1, JAK2 and TYK2 IC50 Values of Illustrative Compounds

[2] = ratio of JAK1 JH2 to TYK2 JH2 binding IC50
[3] = phosphate buffer, pH 7.4, aqueous buffer
[4] = JH2 domain enzyme; 60 min at 25°C, then 4°C overnight; read-out: TYK2 JH2 Binding IC50
[5] = JH2 domain enzyme; 60 min at 25°C, then 4°C overnight; read-out: JAK1 JH2 Binding IC50
[6] = BaF3, 72 h, 72 h compound treatment

T3 sequence (O60674 849-1124 limits assumed): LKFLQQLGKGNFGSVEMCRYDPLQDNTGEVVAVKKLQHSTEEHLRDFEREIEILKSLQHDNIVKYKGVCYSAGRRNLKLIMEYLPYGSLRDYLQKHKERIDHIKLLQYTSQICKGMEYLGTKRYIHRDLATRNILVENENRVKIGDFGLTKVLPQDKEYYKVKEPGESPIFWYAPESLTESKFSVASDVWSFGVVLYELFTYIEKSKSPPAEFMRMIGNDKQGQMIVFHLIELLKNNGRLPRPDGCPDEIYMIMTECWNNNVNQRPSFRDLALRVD
T1 sequence (P29597 589-875 limits assumed): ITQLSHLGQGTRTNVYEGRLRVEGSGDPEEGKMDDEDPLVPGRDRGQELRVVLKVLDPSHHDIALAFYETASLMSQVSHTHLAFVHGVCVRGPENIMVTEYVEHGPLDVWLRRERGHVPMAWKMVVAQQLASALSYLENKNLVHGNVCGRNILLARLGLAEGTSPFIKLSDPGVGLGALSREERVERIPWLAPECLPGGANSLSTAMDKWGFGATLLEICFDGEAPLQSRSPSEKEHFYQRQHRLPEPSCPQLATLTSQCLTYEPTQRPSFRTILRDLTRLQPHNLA
T2 sequence (P23458 583-855 limits assumed): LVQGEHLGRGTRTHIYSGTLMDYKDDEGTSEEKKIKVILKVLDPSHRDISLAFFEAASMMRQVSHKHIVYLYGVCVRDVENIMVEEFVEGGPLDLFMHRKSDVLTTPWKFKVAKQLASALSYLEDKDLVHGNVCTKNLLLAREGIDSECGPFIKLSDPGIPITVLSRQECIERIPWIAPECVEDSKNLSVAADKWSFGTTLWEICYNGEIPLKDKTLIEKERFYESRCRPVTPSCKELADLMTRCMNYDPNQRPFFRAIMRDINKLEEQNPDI

| Structure (SMILES) | solubility kinetic at 2 h (Kinetic solubility; aqueous buffer) [µM] | JAK1/TYK2 selectivity (TYK2-JH2 domain; [2]) | IC50 (TYK2-JH2 domain; read-out: TYK2 JH2 Binding IC50; JH2 domain enzyme; 60 min at 25°C, then 4°C overnight) [nM] | IC50 (JAK1-JH2 domain; read-out: JAK1 JH2 Binding IC50; JH2 domain enzyme; 60 min at 25°C, then 4°C overnight) [nM] | IC50 (IFNa pSTAT1) [nM] | IC50 ([1]; BaF3, 72 h compound treatment) [nM] | solubility kinetic at 2 h (Kinetic solubility; [3]) [µM] | IC50 (TYK2-JH2 domain; [4]) [nM] | IC50 (JAK1-JH2 domain; [5]) [nM] | IC50 [1, 6] [nM] | IC50 (JAK2) [nM] |
| --- | --- | --- | --- | --- | --- | --- | --- | --- | --- | --- | --- |
| COC(=O)c1cnc(NC(=O)[C@@H]2C[C@@H]2F)cc1Nc1nn(C)c2ccc(C(O)C(F)(F)F)c(OC)c12 (single isomer, unassigned) [Example 122A, Methyl 6-((1S,2S)-2-fluorocyclopropane-1-carboxamido)-4-((4-methoxy-1-methyl-5-((S*)-2,2,2-trifluoro-1-hydroxyethyl)-1H-indazol-3-yl)amino) nicotinate] | 10.3 (≈ 5.27 µg/mL) | 216.29 | 0.072 | 15.6 | 0.239 | 0.8 |  |  |  |  |  |
| [2H]C([2H])([2H])NC(=O)c1cnc(NC(=O)C2CC2)cc1Nc1cnn2ccc([C@H](O)C(F)(F)F)c(OC)c12 [Example 7A, (S)-6-(cyclopropanecarboxamido)-4-((4-methoxy-5-(2,2,2-trifluoro-1-hydroxyethyl)pyrazolo[1,5-a]pyridin-3-yl)amino)-N-(methyl-d3)nicotinamide] |  | 107.6 |  |  | 1.04 |  | 52.1 (≈ 25.1 µg/mL) | 0.097 | 10.4 | 5.4 | > 20000 |
| [2H]C([2H])([2H])NC(=O)c1cnc(NC(=O)C2CC2)cc1Nc1cnn2ccc([C@@H](O)C(F)(F)F)c(OC)c12 [Example 7B, (R)-6-(cyclopropanecarboxamido)-4-((4-methoxy-5-(2,2,2-trifluoro-1-hydroxyethyl)pyrazolo[1,5-a]pyridin-3-yl)amino)-N-(methyl-d3)nicotinamide] |  | 24.4 |  |  |  |  | 55.8 (≈ 26.9 µg/mL) | 0.528 | 12.9 | 223 | > 20000 |
| [2H]C([2H])([2H])NC(=O)c1cnc(Nc2ccn(C)n2)cc1Nc1cnn2ccc([C@H](O)C(F)(F)F)c(OC)c12 [Example 21, (S)-4-((4-methoxy-5-(2,2,2-trifluoro-1-hydroxyethyl)pyrazolo[1,5-a]pyridin-3-yl)amino)-N-(methyl-d3)-6-((1-methyl-1H-pyrazol-3-yl)amino)nicotinamide] |  | 142.7 |  |  |  |  | 57.2 (≈ 28.2 µg/mL) | 0.077 | 11 | 15.7 | > 20000 |
| [2H]C([2H])([2H])NC(=O)c1cnc(Nc2cc(C)nc(C)n2)cc1Nc1cnn2ccc([C@H](O)C(F)(F)F)c(OC)c12 [Example 25, (S)-6-((2,6-Dimethylpyrimidin-4-yl)amino)-4-((4-methoxy-5-(2,2,2-trifluoro-1-hydroxyethyl)pyrazolo[1,5-a]pyridin-3-yl)amino)-N-(methyl-d3)nicotinamide] |  | 169.1 |  |  |  |  | 43 (≈ 22.3 µg/mL) | 0.068 | 11.5 | 5.01 | > 20000 |
| [2H]C([2H])([2H])NC(=O)c1cnc(NC(=O)C2CC2)cc1Nc1cnn2ccc([C@H](OC)C(F)(F)F)c(OC)c12 [Example 27, (S)-6-(cyclopropanecarboxamido)-4-((4-methoxy-5-(2,2,2-trifluoro-1-methoxyethyl)pyrazolo[1,5-a]pyridin-3-yl)amino)-N-(methyl-d3)nicotinamide] |  | 128.0 |  |  |  |  | 14.2 (≈ 7.06 µg/mL) | 0.064 | 8.19 | 8.54 | > 20000 |
| [2H]C([2H])([2H])NC(=O)c1nnc(NC(=O)C2CC2)cc1Nc1cnn2ccc([C@H](O)C(F)(F)F)c(OC)c12 [Example 30, (S)-6-(cyclopropanecarboxamido)-4-((4-methoxy-5-(2,2,2-trifluoro-1-hydroxyethyl)pyrazolo[1,5-a]pyridin-3-yl)amino)-N-(methyl-d3)pyridazine-3-carboxamide] |  | 124.4 |  |  |  |  | 42 (≈ 20.2 µg/mL) | 0.088 | 10.9 | 7.96 | > 20000 |
| COC(=O)c1cnc(NC(=O)C2CC2)cc1Nc1nn(C)c2ccc([C@H](OC)C(F)(F)F)c(OC)c12 [Example 45B, Methyl (S)-6-(cyclopropanecarboxamido)-4-((4-methoxy-1-methyl-5-(2,2,2-trifluoro-1-methoxyethyl)-1H-indazol-3-yl)amino)nicotinate] |  | 197.30 |  |  | 4.8 |  | 9.37 (≈ 4.75 µg/mL) | 0.124 | 24.5 | 2.53 |  |
| COC(=O)c1cnc(NC(=O)C2CC2)cc1Nc1nn(C)c2ccc([C@H](O)C(F)(F)F)c(OC)c12 [Example 48A, Methyl (S)-6-(cyclopropanecarboxamido)-4-((4-methoxy-1-methyl-5-(2,2,2-trifluoro-1-hydroxyethyl)-1H-indazol-3-yl)amino)nicotinate] |  | 158.89 |  |  | 1.03 |  | 6.98 (≈ 3.44 µg/mL) | 0.145 | 23 | 1.5 | > 5000 |
| [2H]C([2H])([2H])NC(=O)c1cnc(NC(=O)C2CC2)cc1Nc1nn(C)c2ccc([C@H](O)C(F)(F)F)c(OC)c12 [Example 49A, (S)-6-(cyclopropanecarboxamido)-4-((4-methoxy-1-methyl-5-(2,2,2-trifluoro-1-hydroxyethyl)-1H-indazol-3-yl)amino)-N-(methyl-d3)nicotinamide] |  | 49.3 |  |  | 0.084 |  | 45.5 (≈ 22.5 µg/mL) | 0.107 | 5.28 | 0.464 | > 10000 |
| [2H]C([2H])([2H])O[C@@H](c1ccc2c(c(Nc3cc(NC(=O)C4CC4)ncc3C(=O)OC)nn2C)c1OC)C(F)(F)F [Example 50B, Methyl (S)-6-(cyclopropanecarboxamido)-4-((4-methoxy-1-methyl-5-(2,2,2-trifluoro-1-(methoxy-d3)ethyl)-1H-indazol-3-yl)amino)nicotinate] |  | 162.94 |  |  | 9.3 |  | 7.23 (≈ 3.69 µg/mL) | 0.177 | 28.8 | 2.85 | > 5000 |
| [2H]C([2H])([2H])NC(=O)c1cnc(NC(=O)C2CC2)cc1Nc1nn(C)c2ccc([C@H](OC([2H])([2H])[2H])C(F)(F)F)c(OC)c12 [Example 55A, (S)-6-(cyclopropanecarboxamido)-4-((4-methoxy-1-methyl-5-(2,2,2-trifluoro-1-(methoxy-d3)ethyl)-1H-indazol-3-yl)amino)-N-(methyl-d3)nicotinamide] |  | 48.9 |  |  |  |  | 7.78 (≈ 3.99 µg/mL) | 0.052 | 2.54 | 0.352 | > 10000 |
